Test results as given in PubChem BioAssay AID256 (DTP/NCI, 2004).
“And” between values parts separate entries of the source, which are not always exact repeats. Identical values can stand only once. Toxic doses and inconclusive results are not listed. The calls were made as follows: active = survival T/C of 150% or more; inactive = T/C below 125% in these data.

Tested on: CD2F1 mice, L1210 leukemia ip, survival T/C
Assay: NCI In Vivo Anticancer Drug Screen. Data for tumor model L1210 Leukemia (intraperitoneal) in CD2F1 (CDF1) mice
Settings: higher = longer survival
Outline: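 Compound-dosed mice with transplantable tumor versus matched vehicle controls; endpoint ratio T/C reported.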

[1] = endpoint: mean survival time, dose: 50.0 mg/kg/injection, schedule: Q01DX009 (ip), vehicle: saline with Tween-80
[2] = endpoint: mean survival time, dose: 100.0 mg/kg/injection, schedule: Q01DX009 (ip), vehicle: saline with Tween-80
[3] = endpoint: mean survival time, dose: 200.0 mg/kg/injection, schedule: Q01DX009 (ip), vehicle: saline with Tween-80
[4] = endpoint: mean survival time, dose: 25.0 mg/kg/injection, schedule: Q04DX002 (ip), vehicle: saline with Tween-80
[5] = endpoint: mean survival time, dose: 50.0 mg/kg/injection, schedule: Q04DX002 (ip), vehicle: saline with Tween-80
[6] = endpoint: mean survival time, dose: 100.0 mg/kg/injection, schedule: Q04DX002 (ip), vehicle: saline with Tween-80
[7] = endpoint: mean survival time, dose: 25.0 mg/kg/injection, schedule: Q01DX009 (ip), vehicle: saline
[8] = endpoint: mean survival time, dose: 50.0 mg/kg/injection, schedule: Q01DX009 (ip), vehicle: saline
[9] = endpoint: mean survival time, dose: 400.0 mg/kg/injection, schedule: Q01DX009 (ip), vehicle: saline with Tween-80
[10] = endpoint: mean survival time, dose: 100.0 mg/kg/injection, schedule: Q01DX001 (ip), vehicle: saline
[11] = endpoint: mean survival time, dose: 200.0 mg/kg/injection, schedule: Q01DX001 (ip), vehicle: saline

Measured: T/C

Nc1nc2c(ncn2-c2ccc(OCCNC(=O)Nc3cc(S(=O)(=O)F)ccc3Cl)cc2)c(=O)[nH]1 (tested in a mixture with another compound)
inactive: endpoint: mean survival time, dose: 75.0 mg/kg/injection, schedule: Q01DX001 (ip), vehicle: saline with Tween-80 92 % of control | endpoint: mean survival time, dose: 150.0 mg/kg/injection, schedule: Q01DX001 (ip), vehicle: saline with Tween-80 95 % of control

COc1cc2cc[n+]3c(C)c4ccc(OC)c(OC)c4cc3c2cc1OC (tested in a mixture with another compound)
inactive: endpoint: mean survival time, dose: 5.0 mg/kg/injection, schedule: Q01DX009 (ip), vehicle: saline 108 % of control | endpoint: mean survival time, dose: 60.0 mg/kg/injection, schedule: Q01DX009 (ip), vehicle: saline 121 % of control

CC(=O)N(C)c1ccc(NC(=O)Nc2ccc(Cl)cc2C)cc1
inactive: [1] 91 % of control | [2] 88 % of control | [3] 91 % of control

COc1ccc(NC(=O)Nc2ccccc2C)c(Cl)c1
inactive: [4] 94 % of control | [5] 98 % of control | [6] 86 % of control and 90 % of control | endpoint: mean survival time, dose: 400.0 mg/kg/injection, schedule: Q04DX002 (ip), vehicle: saline with Tween-80 86 % of control

C[S+](C)C
inactive: [7] 101 % of control | [8] 100 % of control | endpoint: mean survival time, dose: 100.0 mg/kg/injection, schedule: Q01DX009 (ip), vehicle: saline 104 % of control | endpoint: mean survival time, dose: 100.0 mg/kg/injection, schedule: Q04DX003 (ip), vehicle: saline 101 % of control | endpoint: mean survival time, dose: 200.0 mg/kg/injection, schedule: Q01DX009 (ip), vehicle: saline 98 % of control | endpoint: mean survival time, dose: 200.0 mg/kg/injection, schedule: Q04DX003 (ip), vehicle: saline 101 % of control | endpoint: mean survival time, dose: 400.0 mg/kg/injection, schedule: Q01DX009 (ip), vehicle: saline 102 % of control | endpoint: mean survival time, dose: 400.0 mg/kg/injection, schedule: Q04DX003 (ip), vehicle: saline 104 % of control

NC(=O)C1C=CCC1 (centres undefined)
inactive: endpoint: mean survival time, dose: 25.0 mg/kg/injection, schedule: Q01DX009 (ip), vehicle: saline with Tween-80 104 % of control | [4] 95 % of control | [1] 101 % of control | [5] 100 % of control | [2] 101 % of control | [6] 91 % of control

O=C(Nc1cccc(O)c1)C(Cl)=C(Cl)Cl
inactive: endpoint: median survival time, dose: 1.12 mg/kg/injection, schedule: Q01DX005 (ip), vehicle: DMSO 100 % of control | endpoint: median survival time, dose: 1.19 mg/kg/injection, schedule: Q01DX005 (ip), vehicle: DMSO 101 % of control | endpoint: median survival time, dose: 1.87 mg/kg/injection, schedule: Q01DX005 (ip), vehicle: DMSO 100 % of control and 102 % of control | endpoint: median survival time, dose: 3.12 mg/kg/injection, schedule: Q01DX005 (ip), vehicle: DMSO 113 % of control and 98 % of control | endpoint: median survival time, dose: 5.19 mg/kg/injection, schedule: Q01DX005 (ip), vehicle: DMSO 104 % of control | endpoint: median survival time, dose: 5.2 mg/kg/injection, schedule: Q01DX005 (ip), vehicle: DMSO 108 % of control | endpoint: median survival time, dose: 6.25 mg/kg/injection, schedule: Q01DX005 (ip), vehicle: other 120 % of control | endpoint: median survival time, dose: 8.66 mg/kg/injection, schedule: Q01DX005 (ip), vehicle: DMSO 102 % of control | endpoint: median survival time, dose: 8.67 mg/kg/injection, schedule: Q01DX005 (ip), vehicle: DMSO 114 % of control | endpoint: median survival time, dose: 12.5 mg/kg/injection, schedule: Q01DX005 (ip), vehicle: other 118 % of control | endpoint: median survival time, dose: 25.0 mg/kg/injection, schedule: Q01DX005 (ip), vehicle: other 93 % of control

Cc1cc2c(cc1C)C(=O)C(N(C)C)=CC2=O
inactive: [2] 102 % of control | [3] 98 % of control | [9] 91 % of control

NC(N)=NC(N)=Nc1ccc(-c2ccccc2)cc1
inactive: endpoint: mean survival time, dose: 25.0 mg/kg/injection, schedule: Q01DX001 (ip), vehicle: saline with Tween-80 100 % of control | endpoint: mean survival time, dose: 50.0 mg/kg/injection, schedule: Q01DX001 (ip), vehicle: saline with Tween-80 103 % of control | endpoint: mean survival time, dose: 100.0 mg/kg/injection, schedule: Q01DX001 (ip), vehicle: saline with Tween-80 93 % of control

Cc1ccc(C(=O)c2ccccc2Cl)cc1
inactive: endpoint: mean survival time, dose: 15.0 mg/kg/injection, schedule: Q01DX009 (ip), vehicle: Klucel (hydroxypropylcellulose) (HPC) 91 % of control | endpoint: mean survival time, dose: 30.0 mg/kg/injection, schedule: Q01DX009 (ip), vehicle: Klucel (hydroxypropylcellulose) (HPC) 87 % of control | endpoint: mean survival time, dose: 60.0 mg/kg/injection, schedule: Q01DX009 (ip), vehicle: Klucel (hydroxypropylcellulose) (HPC) 87 % of control

CCC(/C=N\O)CC
inactive: [10] 100 % of control | [11] 108 % of control

O=C(CCOP(=O)(NCCCl)NCCCl)c1ccccc1
inactive: endpoint: median survival time, dose: 62.5 mg/kg/injection, schedule: Q01DX001 (ip), vehicle: saline with Tween-80 117 % of control
active: endpoint: median survival time, dose: 125.0 mg/kg/injection, schedule: Q01DX001 (ip), vehicle: saline with Tween-80 166 % of control | endpoint: median survival time, dose: 250.0 mg/kg/injection, schedule: Q01DX001 (ip), vehicle: saline with Tween-80 165 % of control and 229 % of control | endpoint: median survival time, dose: 500.0 mg/kg/injection, schedule: Q01DX001 (ip), vehicle: saline with Tween-80 291 % of control

CCCCCCCCCCCCCCP(=O)(O)O
inactive: endpoint: mean survival time, dose: 75.0 mg/kg/injection, schedule: Q01DX001 (ip), vehicle: other 92 % of control | endpoint: mean survival time, dose: 150.0 mg/kg/injection, schedule: Q01DX001 (ip), vehicle: other 98 % of control | endpoint: mean survival time, dose: 300.0 mg/kg/injection, schedule: Q01DX001 (ip), vehicle: other 96 % of control

COc1cccc2c1C(=O)c1c(O)c3c(c(O)c1C2=O)C[C@@](O)(/C(C)=N/NC(=O)c1ccc(Cl)cc1)C[C@@H]3OC1CC(N)C(O)C(C)O1 (some centres undefined)
inactive: endpoint: mean survival time, dose: 0.5 mg/kg/injection, schedule: Q01DX009 (ip), vehicle: saline 96 % of control | endpoint: mean survival time, dose: 0.5 mg/kg/injection, schedule: Q01DX009 (ip), vehicle: suspension in saline 110 % of control | endpoint: mean survival time, dose: 1.0 mg/kg/injection, schedule: Q01DX009 (ip), vehicle: suspension in saline 115 % of control | endpoint: mean survival time, dose: 2.0 mg/kg/injection, schedule: Q01DX009 (ip), vehicle: saline 122 % of control | endpoint: mean survival time, dose: 2.0 mg/kg/injection, schedule: Q01DX009 (ip), vehicle: suspension in saline 118 % of control | endpoint: mean survival time, dose: 16.0 mg/kg/injection, schedule: Q01DX009 (ip), vehicle: saline 108 % of control

O=C(CC(NC(=O)OCc1ccccc1)C(=O)OCc1ccccc1)OCc1ccccc1 (centres undefined)
inactive: [2] 106 % of control | endpoint: mean survival time, dose: 100.0 mg/kg/injection, schedule: Q04DX003 (ip), vehicle: saline with Tween-80 92 % of control | [3] 98 % of control | endpoint: mean survival time, dose: 200.0 mg/kg/injection, schedule: Q04DX003 (ip), vehicle: saline with Tween-80 91 % of control | [9] 97 % of control | endpoint: mean survival time, dose: 400.0 mg/kg/injection, schedule: Q04DX003 (ip), vehicle: saline with Tween-80 92 % of control

CN1CCCC(OC(=O)C(c2ccccc2)C2(O)CCCC2)C1 (centres undefined)
inactive: endpoint: mean survival time, dose: 75.0 mg/kg/injection, schedule: Q01DX001 (ip), vehicle: saline 98 % of control

CN(C)C(=O)c1cccc(NC(=O)NCc2cccc(N3C(N)=NC(N)=NC3(C)C)c2)c1
inactive: [7] 94 % of control | [8] 95 % of control

CCCCCCCCCCCC(=O)NC(=S)Nc1cccc(C(F)(F)F)c1
inactive: endpoint: mean survival time, dose: 100.0 mg/kg/injection, schedule: Q01DX009 (ip), vehicle: other 95 % of control | endpoint: mean survival time, dose: 200.0 mg/kg/injection, schedule: Q01DX009 (ip), vehicle: other 103 % of control | endpoint: mean survival time, dose: 400.0 mg/kg/injection, schedule: Q01DX009 (ip), vehicle: other 103 % of control

CN(C)S(=O)(=O)c1ccccc1C(=O)O
inactive: endpoint: mean survival time, dose: 100.0 mg/kg/injection, schedule: Q04DX003 (ip), vehicle: saline sonified 100 % of control | endpoint: mean survival time, dose: 200.0 mg/kg/injection, schedule: Q04DX003 (ip), vehicle: saline sonified 100 % of control | endpoint: mean survival time, dose: 400.0 mg/kg/injection, schedule: Q04DX003 (ip), vehicle: saline sonified 93 % of control

N=c1cc([N+](=O)[O-])ccn1O
inactive: [10] 97 % of control | [11] 97 % of control | endpoint: mean survival time, dose: 400.0 mg/kg/injection, schedule: Q01DX001 (ip), vehicle: saline 105 % of control

CO/N=C(\N)c1ncn(C2OC3COP(=O)(O)OC3C2O)c1N (centres undefined)
inactive: endpoint: median survival time, dose: 49.8 mg/kg/injection, schedule: Q01DX005 (ip), vehicle: saline 98 % of control | endpoint: median survival time, dose: 99.5 mg/kg/injection, schedule: Q01DX005 (ip), vehicle: saline 100 % of control | endpoint: median survival time, dose: 199.1 mg/kg/injection, schedule: Q01DX005 (ip), vehicle: saline 96 % of control

CC1CCCC(C)N1C1=NCCO1 (centres undefined)
inactive: endpoint: mean survival time, dose: 5.0 mg/kg/injection, schedule: Q04DX003 (ip), vehicle: saline 102 % of control | endpoint: mean survival time, dose: 10.0 mg/kg/injection, schedule: Q04DX003 (ip), vehicle: saline 97 % of control | endpoint: mean survival time, dose: 20.0 mg/kg/injection, schedule: Q04DX003 (ip), vehicle: saline 94 % of control
